Columns and labels:
Type in all cases: cell-based, human
JEG-3 cells [1] = assay: CellTiter-Glo luminescent cell viability assay (HTTS); conditions: for Viability ↓, lowest concentration at which the mean response value exceeded the mean control value ± 2*SD (rough binning): decrease; for cell viability relative to vehicle control (rough binning): after 24 h, in at least one concentration
Summary of the method: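 JEG-3 cells (2,500/well) adhered overnight, then exposed 24 h to PFAS (methanol stocks; vehicle 2.5% methanol, top concentration 500 µM). Viability read by CellTiter-Glo ATP luminescence in the same wells as mitochondrial membrane potential; wells with 0 h confluence <20% or >80% excluded.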

JEG-3 cells [2] = assay: Proliferation, change in confluence 0-24 h (IncuCyte Zoom, HTTS); conditions: for cellular proliferation relative to vehicle control (rough binning): after 24 h, in at least one concentration; for Prolif ↓, lowest concentration at which the mean response value exceeded the mean control value ± 2*SD (rough binning): decrease
Summary of the method: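 Confluence measured by automated image masking at 0 h and 24 h after dosing; proliferation = 24 h minus baseline confluence. JEG-3 seeded at 2,500 cells/well, ~30–50% baseline confluence, exposed 24 h to PFAS up to 500 µM in medium with 2.5% methanol vehicle; 37°C, 5% CO2.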

JEG-3 cells [3] = assay: Mitochondrial membrane potential, JC-10 assay (HTTS); conditions: for MMP ↓, lowest concentration at which the mean response value exceeded the mean control value ± 2*SD (rough binning): 24 h, decrease; for EC50: four-parameter fit, estimates meeting inclusion criteria; for MMP relative to vehicle control (rough binning): after 24 h, in at least one concentration
Summary of the method: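 JEG-3 cells seeded at 2,500 per well were exposed to PFAS for 24 h at 37 °C, with 2.5% methanol vehicle. After a PBS wash, 20 μM JC-10 was added for 1 h at 37 °C. Membrane potential was taken as the green (490/525 nm) to red (540/590 nm) fluorescence ratio.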

[4] = JEG-3 cells, 24 h exposure, four-parameter fit, estimates meeting inclusion criteria, read-out: Viability EC50 ± SD
[5] = JEG-3 cells, 24 h exposure, four-parameter fit, estimates meeting inclusion criteria, read-out: Proliferation EC50 ± SD
[6] = JEG-3 cells, 24 h exposure, read-out: MMP EC50 ± SD
[7] = Homo sapiens, JEG-3, 24 h, read-out: Viability EC50 ± SD, JEG-3 cells, 24 h exposure, four-parameter fit, estimates meeting inclusion criteria
[8] = Homo sapiens, JEG-3, 24 h, read-out: Proliferation EC50 ± SD, JEG-3 cells, 24 h exposure, four-parameter fit, estimates meeting inclusion criteria
[9] = Homo sapiens, JEG-3, 24 h, read-out: MMP EC50 ± SD, JEG-3 cells, 24 h exposure

| SMILES | Viability ↓, lowest concentration at which the mean response value exceeded the mean control value ± 2*SD (rough binning) (JEG-3 cells [1]; JEG-3 cells, 24 h) [µM] | cell viability relative to vehicle control (rough binning) (JEG-3 cells [1]) | cellular proliferation relative to vehicle control (rough binning) (JEG-3 cells [2]) | EC50 (JEG-3 cells [1]; [4]) [µM] | Prolif ↓, lowest concentration at which the mean response value exceeded the mean control value ± 2*SD (rough binning) (JEG-3 cells [2]; JEG-3 cells, 24 h) [µM] | EC50 (JEG-3 cells [2]; [5]) [µM] | MMP ↓, lowest concentration at which the mean response value exceeded the mean control value ± 2*SD (rough binning) (JEG-3 cells [3]; JEG-3 cells) [µM] | EC50 (JEG-3 cells [3]; [6]) [µM] | MMP relative to vehicle control (rough binning) (JEG-3 cells [3]) | EC50 (JEG-3 cells [1]; [7]) [µM] | EC50 (JEG-3 cells [2]; [8]) [µM] | EC50 (JEG-3 cells [3]; [9]) [µM] | also measured |
| --- | --- | --- | --- | --- | --- | --- | --- | --- | --- | --- | --- | --- | --- |
| N.O=C(O)C(F)(OC(F)(F)C(F)(F)C(F)(F)F)C(F)(F)F (stereo not drawn) [Ammonium perfluoro-2-methyl-3-oxahexanoate] | 350 | reduced cell viability | increased cellular proliferation |  |  |  |  |  |  |  |  |  | Prolif ↑, lowest concentration at which the mean response value exceeded the mean control value ± 2*SD (rough binning) (JEG-3 cells [2]; JEG-3 cells, 24 h, increase): 50 µM |
| O=C(O)C(F)(F)C(F)(F)C(F)(F)C(F)(F)C(F)(F)C(F)(F)C(F)(F)C(F)(F)F [Perfluorononanoic acid] | 350 | reduced cell viability | reduced cellular proliferation | 333 ± 10.3 | 300 | 326 ± 5.5 | 300 | 305 ± 13.6 | reduced MMP |  |  |  |  |
| NS(=O)(=O)C(F)(F)C(F)(F)C(F)(F)C(F)(F)C(F)(F)C(F)(F)C(F)(F)C(F)(F)F [Perfluorooctanesulfonamide] |  |  |  |  |  |  |  |  |  | 175 ± 4.9 | 160 ± 87.8 | 227 ± 370 | EC50 (JEG-3 cells [1]; Homo sapiens, JEG-3, 24 h, read-out: viability EC50 ± SE, JEG-3 cells, 24 h): 176 ± 5 µM; EC50 (JEG-3 cells [1]; read-out: Viability EC50 ± SD, JEG-3 cells, 24 h exposure, four-parameter fit, estimates meeting inclusion criteria): 176 ± 4.9 µM; EC50 (JEG-3 cells [2]; Homo sapiens, JEG-3, 24 h, read-out: proliferation EC50 ± SE, JEG-3 cells, 24 h): 160 ± 90 µM |
| O=S(=O)(O)C(F)(F)C(F)(F)C(F)(F)C(F)(F)C(F)(F)C(F)(F)C(F)(F)C(F)(F)F [Perfluorooctanesulfonic acid] | 300 | reduced cell viability | reduced cellular proliferation | 291 ± 9.1 | 250 | 294 ± 5.8 | 350 | 353 ± 6.7 | reduced MMP |  |  |  | EC50 (JEG-3 cells [1]; JEG-3 cells, 24 h exposure, four-parameter fit, estimates meeting inclusion criteria, listed as PFOS, read-out: Viability EC50 ± SD): 291 µM; EC50 (JEG-3 cells [2]; JEG-3 cells, 24 h exposure, four-parameter fit, estimates meeting inclusion criteria, listed as PFOS, read-out: Proliferation EC50 ± SD): 294 µM; EC50 (JEG-3 cells [3]; JEG-3 cells, 24 h exposure, listed as PFOS, read-out: MMP EC50 ± SD): 353 µM |
| O=C(O)C(F)(F)C(F)(F)C(F)(F)C(F)(F)C(F)(F)C(F)(F)C(F)(F)F [Perfluorooctanoic acid] |  |  | reduced cellular proliferation |  |  |  |  |  | reduced MMP | 358 ± 16.9 | 344 ± 12.2 | 360 ± 18 | Viability ↑, lowest concentration at which the mean response value exceeded the mean control value ± 2*SD (rough binning) (JEG-3 cells [1]; JEG-3 cells, 24 h, increase): 200 µM; minimal effective concentration (JEG-3 cells [2]; Homo sapiens, JEG-3, 24 h, read-out: Prolif ↓, lowest concentration at which the mean response value exceeded the mean control value ± 2*SD (rough binning)): 350 µM; minimal effective concentration (JEG-3 cells [3]; Homo sapiens, JEG-3, 24 h, read-out: MMP ↓, lowest concentration at which the mean response value exceeded the mean control value ± 2*SD (rough binning)): 450 µM |
